Source: patent EP1247803A2, “Indolinone compounds suitable for modulation of protein kinases” (Sugen, Inc., priority 1996, dated 1998)

Columns and labels:
[1] = system: MET; test: MET biochemical kinase assay; set-up: species or system human; concentration or dose not given beside the values
Summary of the method: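 Colorimetric signal from an HRP-linked anti-phosphotyrosine antibody with TMB measures phosphate incorporated into immobilised MET. The receptor is pulled from lysates by a polyclonal antibody against its cytoplasmic domain, then reacts in ATP- and metal-containing buffer with test compound.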

[2] = molecular target: T1, EGFR (Homo sapiens, UniProt P00533); test: EGFR ELISA assay (in vitro kinase activity, EGFR captured from A431 cell lysate); format: biochemical; set-up: concentration or dose not given beside the values
T1 construct: Add 7 ug A431 cell lysate per well (EGFR source); endogenous in cells; host or cells: A431
Summary of the method: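 EGFR from A431 lysate was captured on plates coated with anti-EGFR antibody. Compounds were added 30 min before a 5 min phosphorylation with 3 µM ATP/5 mM MnCl2, which was stopped with 20 mM EDTA. Phosphotyrosine was detected with rabbit anti-phosphotyrosine, then a peroxidase-conjugated secondary and ABTS/H2O2, read at 410 nm.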

T1 sequence (P00533 25-1210): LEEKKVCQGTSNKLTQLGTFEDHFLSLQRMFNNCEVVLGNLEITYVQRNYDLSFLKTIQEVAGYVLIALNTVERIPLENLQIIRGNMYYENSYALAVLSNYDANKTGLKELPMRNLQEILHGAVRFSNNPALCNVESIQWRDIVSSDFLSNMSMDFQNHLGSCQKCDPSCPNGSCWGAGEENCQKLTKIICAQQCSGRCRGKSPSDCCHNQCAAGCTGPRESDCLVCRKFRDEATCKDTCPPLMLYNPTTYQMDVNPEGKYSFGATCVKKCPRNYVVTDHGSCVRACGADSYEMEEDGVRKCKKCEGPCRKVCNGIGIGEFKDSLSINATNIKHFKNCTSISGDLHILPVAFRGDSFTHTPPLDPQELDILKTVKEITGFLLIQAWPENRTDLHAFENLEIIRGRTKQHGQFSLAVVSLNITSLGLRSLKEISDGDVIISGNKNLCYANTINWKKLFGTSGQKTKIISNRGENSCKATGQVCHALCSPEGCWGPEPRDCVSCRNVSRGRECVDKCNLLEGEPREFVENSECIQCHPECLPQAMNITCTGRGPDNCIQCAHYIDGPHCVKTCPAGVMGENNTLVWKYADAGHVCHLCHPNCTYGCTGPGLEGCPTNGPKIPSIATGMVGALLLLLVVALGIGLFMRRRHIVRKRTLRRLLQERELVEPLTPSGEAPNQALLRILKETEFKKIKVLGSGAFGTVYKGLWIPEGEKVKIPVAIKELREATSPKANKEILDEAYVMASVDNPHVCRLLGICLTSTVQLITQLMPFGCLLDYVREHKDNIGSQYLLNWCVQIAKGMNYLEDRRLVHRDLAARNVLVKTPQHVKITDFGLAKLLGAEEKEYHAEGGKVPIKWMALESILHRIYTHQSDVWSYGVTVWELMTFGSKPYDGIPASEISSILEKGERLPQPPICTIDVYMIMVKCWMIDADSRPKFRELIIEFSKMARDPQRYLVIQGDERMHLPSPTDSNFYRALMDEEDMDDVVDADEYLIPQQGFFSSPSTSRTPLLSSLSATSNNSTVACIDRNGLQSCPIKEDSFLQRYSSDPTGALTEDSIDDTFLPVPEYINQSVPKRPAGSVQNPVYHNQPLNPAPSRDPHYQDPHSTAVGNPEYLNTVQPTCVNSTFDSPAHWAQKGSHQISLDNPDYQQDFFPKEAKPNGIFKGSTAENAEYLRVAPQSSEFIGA

| Compound | Met Kinase % Inhibition [1] [%] | Biochem EGFR %Inhibition [2] [%] |
| --- | --- | --- |
| O=C1Nc2ccccc2C1=C1C(=O)Nc2c(Br)cc(Br)cc21 [10726/A09] | 70.8 | -6.3 |
| CNS(=O)(=O)c1ccc2c(c1)C(=Cc1c(Br)cnn1-c1ccc(Cl)cc1)C(=O)N2 [10725/D10] | 27.8 | 11.7 |
| CCOC(=O)c1[nH]c(C=C2C(=O)Nc3c(Br)cc(Br)cc32)c(C(=O)OC)c1C [10726/A03] | 70.1 | -12.5 |
| COc1cc(C)cc(O)c1C=C1C(=O)Nc2ccc(S(=O)(=O)Nc3ccc(C(F)(F)F)cc3)cc21 [10725/E06] | 36.7 | -17.7 |
| CCOC(=O)c1[nH]c(C=C2C(=O)Nc3ccc(Br)c(C)c32)c(C(=O)OC)c1C [10726/C03] | 38.9 | 29.8 |
| COc1cccc(O)c1C=C1C(=O)Nc2ccc(S(=O)(=O)N3CCOCC3)cc21 [10717/F10] | 54.6 | -26.4 |
| COc1cc(C)cc(O)c1C=C1C(=O)Nc2ccc(Br)c(C)c21 [10725/C06] | 54.7 | -11.5 |
| COc1ccc(Br)c(C=C2C(=O)Nc3ccc(S(=O)(=O)N4CCOCC4)cc32)c1O [10725/F03] | 63.2 | -36.2 |
| O=C1Nc2ccc(I)cc2C1=Cc1ccc(Br)o1 [10726/B05] | 96.8 | 49.0 |
| O=C1Nc2c(Br)cc(Br)cc2C1=Cc1ccc(Br)o1 [10726/A05] | 75.2 | -28.4 |
| Cc1cn(C)cc1C=C1C(=O)Nc2ccc(Br)c(C)c21 [10726/C06] | 42.6 | -0.9 |
| O=C1Nc2ccc(CCCl)cc2C1=Cc1ccc(N2CCOCC2)cc1 [10725/G08] | 47.3 | -13.7 |
| Cc1cc(C=C2C(=O)Nc3ccc(S(=O)(=O)N4CCOCC4)cc32)[nH]n1 [10725/F05] | 15.5 | -18.9 |
| CCOC(=O)c1[nH]c(C=C2C(=O)Nc3ccc(I)cc32)c(C(=O)OC)c1C [10726/B03] | 81.1 | 3.5 |
| Cc1c(Br)ccc2c1C(=Cc1ccc(N3CCOCC3)cc1)C(=O)N2 [10725/C08] | 28.0 | -11.9 |
| Cc1cc(C=C2C(=O)Nc3ccc(I)cc32)cc(C(C)(C)C)c1O [10726/B04] | 78.9 | 71.1 |
| O=C1Nc2ccc(F)cc2C1=C1C(=O)Nc2c(Br)cc(Br)cc21 [10726/A08] | 63.1 | -28.4 |
| O=CN1CCN(c2ccc(C=C3C(=O)Nc4ccc(CCCl)cc43)cc2)CC1 [10725/G07] | 39.7 | -25.8 |
| O=C1Nc2ccc(S(=O)(=O)N3CCOCC3)cc2C1=Cc1sccc1Br [10725/F02] | 27.8 | -3.7 |
| CCc1ccc(C=C2C(=O)Nc3ccc(I)cc32)s1 [10726/B10] | 58.5 | 40.8 |

| Compound | Met Kinase % Inhibition [1] [%] | Biochem EGFR %Inhibition [2] [%] |
| --- | --- | --- |
| COc1ccc(Br)c(C=C2C(=O)Nc3ccc(CCCl)cc32)c1O [10725/G03] | 58.6 | -2.5 |
| Cc1ccc(C=C2C(=O)Nc3ccc(S(=O)(=O)N4CCOCC4)cc32)s1 [10717/F07] | 37.6 | -14.3 |
| O=C1Nc2ccc(CCCl)cc2C1=Cc1c(Br)cnn1-c1ccc(Cl)cc1 [10725/G10] | 27.7 | 17.8 |
| O=CN1CCN(c2ccc(C=C3C(=O)Nc4ccc(S(=O)(=O)Nc5ccc(C(F)(F)F)cc5)cc43)cc2)CC1 [10725/E07] | 45.3 | 12.5 |
| CCc1ccc(C=C2C(=O)Nc3c(Br)cc(Br)cc32)s1 [10726/A10] | 58.9 | 26.5 |
| Cc1cn(C)cc1C=C1C(=O)Nc2c(Br)cc(Br)cc21 [10726/A06] | 54.7 | 0.2 |
| Cc1[nH]c(C=C2C(=O)Nc3ccc(S(=O)(=O)N4CCOCC4)cc32)c(Br)c1Br [10717/F11] | 81.5 | 91.2 |
| COc1ccc(C=C2C(=O)Nc3c(Br)cc(Br)cc32)cc1 [10726/A11] | 70.8 | 6.2 |
| COc1cc(C)cc(O)c1C=C1C(=O)Nc2ccc(S(=O)(=O)N3CCOCC3)cc21 [10725/F06] | 41.8 | -37.8 |
| O=C1Nc2ccc(S(=O)(=O)N3CCOCC3)cc2C1=Cc1c(Br)cnn1-c1ccc(Cl)cc1 [10725/F10] | 14.2 | 3.7 |
| CCOc1ccccc1C=C1C(=O)Nc2ccc(CCCl)cc21 [10717/G02] | 30.7 | 32.3 |
| O=C1Nc2ccc(S(=O)(=O)N3CCOCC3)cc2C1=Cc1ccc(N2CCOCC2)cc1 [10725/F08] | 72.2 | 15.4 |
| Cc1cc(C=C2C(=O)Nc3c(Br)cc(Br)cc32)cc(C(C)(C)C)c1O [10726/A04] | 85.7 | 40.8 |
| COc1ccc(C=C2C(=O)Nc3ccc(I)cc32)cc1 [10726/B11] | 64.4 | 39.4 |
| CNS(=O)(=O)c1ccc2c(c1)C(=Cc1ccc(N3CCN(C=O)CC3)cc1)C(=O)N2 [10725/D07] | 37.0 | -25.8 |
| Cc1c(Br)ccc2c1C(=Cc1sccc1Br)C(=O)N2 [10725/C02] | 6.3 | -43.4 |
| Cc1cc(C=C2C(=O)Nc3ccc(S(=O)(=O)Nc4ccc(C(F)(F)F)cc4)cc32)[nH]n1 [10725/E05] | 28.2 | -5.5 |
| Cc1ccc(C=C2C(=O)Nc3ccc(Br)c(C)c32)o1 [10725/C04] | 75.9 | 31.8 |
| Cc1ccc(C=C2C(=O)Nc3ccc(S(=O)(=O)N4CCOCC4)cc32)o1 [10725/F04] | 38.1 | -49.6 |
